# Where a name gives a salt, the structure may show the parent alone.
# What was measured:
# drug-naive rats = test: Effects on spontaneous locomotion (locomotor activity in drug-naive rats); format: in vivo, rat; settings: recorded for 60 minutes immediately after drug administration
# Experimental: Prior art dopamine receptor antagonists are known to induce profound decrease in locomotor activity (catalepsy).
# Behavioural activity is measured using eight Digiscan activity monitors (RXYZM (16) TAO, Omnitech Electronics, Columbus, Ohio, USA), connected to an Omnitech Digiscan analyzer and an Apple Macintosh computer equipped with a digital interface board (NB DIO-24, National Instruments, USA). Each activity monitor consists of a quadratic metal frame (W×L=40 cm×40 cm) equipped with photobeam sensors. During measurements of behavioural activity, a rat is put in a transparent acrylic cage (WxLxH, 40×40×30 cm) which in turn is placed in the activity monitor. Each activity monitor is equipped with three rows of infrared photobeam sensors, each row consisting of 16 sensors. Two rows are placed along the front and the side of the floor of the cage, at a 90° angle, and the third row is placed 10 cm above the floor to measure vertical activity. Photobeam sensors are spaced 2.5 cm apart. Each activity monitor is fitted in an identical sound and light attenuating box containing a weak house light and a fan.
# The computer software is written using object oriented programming (LabVIEW®, National instruments, Austin, Tex., USA).
# Behavioural data from each activity monitor, representing the position (horizontal center of gravity and vertical activity) of the animal at each time, are recorded at a sampling frequency of 25 Hz and collected using a custom written LABView™ application. The data from each recording session are stored and analyzed with respect to distance traveled. Each behavioural recording session lasts 60 min, starting approximately 4 min after the injection of test compound. Similar behavioural recording procedures are applied for drug-naïve and drug pre-treated rats. Rats pre-treated with d-amphetamine are given a dose of 1.5 mg/kg i.p. 10 min before the recording session in the activity monitor. Rats pre-treated with MK-801 are given a dose of 0.7 mg/kg i.p. 90 min before the recording session in the activity monitor. The results are presented as counts/60 minutes, or counts/30 minutes, in arbitrary length units. Statistical comparisons are carried out using Student's t-test against the control group. In MK-801 or amphetamine pre-treated animals, statistical comparisons are made against the MK801 or d-amphetamine controls, respectively.
# [1] = test system: DOPAC (3,4-dihydroxyphenylacetic acid) in the rat striatum; test: Increase of DOPAC (3,4-dihydroxyphenylacetic acid) in the rat striatum after systemic administration; format: in vivo; settings: sc, estimated ED50 on increase of DOPAC in rat striatum, dose range 0-100 μmol/kg s.c., curve fitting
# Text: The increased turnover of dopamine in the terminal areas of the ascending dopaminergic projections of the mammalian brain can be illustrated by measuring of changes in biochemical indices in the brain with the characteristic features of dopamine antagonists, e.g. producing increases in concentrations of dopamine metabolites such as 3,4-dihydroxyphenyl-acetic acid (DOPAC) in the striatum.
# After the behavioural activity sessions, the rats are decapitated and their brains rapidly taken out and put on an ice-cold petri-dish. The limbic forebrain, the striatum, the frontal cortex and the remaining hemispheral parts of each rat are dissected and frozen. Each brain part is subsequently analyzed with respect to its content of monoamines and their metabolites.
# The monoamine transmitter substances (NA (noradrenaline), DA (dopamine), 5-HT (serotonin)) as well as their amine (NM (normethanephrine), 3-MT (3-methoxytyramine)) and acid (DOPAC (3,4-dihydroxyphenylacetic acid), 5-HIAA (5-hydroxyindoleacetic acid), HVA (homovanillic acid)) metabolites are quantified in brain tissue homogenates by HPLC separations and electrochemical detection
# The analytical method is based on two chromatographic separations dedicated for amines or acids. Two chromatographic systems share a common auto injector with a 10-port valve and two sample loops for simultaneous injection on the two systems. Both systems are equipped with a reverse phase column (Luna C18(2), dp 3 μm, 50×2 mm i.d., Phenomenex) and electrochemical detection is accomplished at two potentials on glassy carbon electrodes (MF-1000, Bioanalytical Systems, Inc.). The column effluent is passed via a T-connection to the detection cell or to a waste outlet. This is accomplished by two solenoid valves, which block either the waste or detector outlet. By preventing the chromatographic front from reaching the detector, better detection conditions are achieved. The aqueous mobile phase (0.4 ml/min) for the acid system contains citric acid 14 mM, sodium citrate 10 mM, MeOH 15% (v/v) and EDTA 0.1 mM. Detection potentials relative to Ag/AgCl reference are 0.45 and 0.60V. […] Detection potentials relative to Ag/AgCl reference are 0.45 and 0.65V.
# ED50 value for the increase of DOPAC in striatum is calculated by curve fitting. The evaluation is based on 40 animals over the dose range 0, 3.7, 11, 33 and 100 μmol/kg s.c. in two combined experiments. The DOPAC levels are normalised to control and fitted by least square minimization to the function “End-(End-Control)/(1+(dose/ED50)^slope)”. The four parameters (Control, End, ED50 and Slope) are fitted with the restrictions: ED50>0, 0.5<Slope<3, 350<End<400% of control. To estimate confidence levels for the parameters, the fit is repeated 100 times with a random evenly distributed squared weight (0 to 1) for every measurement value. Presented ED50-ranges cover 95% of these values.
# [2] = test system: d-amphetamine pre-treated rats; test: Reduction of amphetamine-induced hyper-locomotion; format: in vivo; settings: Rattus norvegicus; rats pre-treated with d-amphetamine 1.5 mg/kg i.p.; test compound 0-100 μmol/kg s.c.; distance during last 45 minutes of one hour
# Text: The increase in activity after treatment with d-amphetamine is a standard model of hyperdopaminergia. In this model, dopaminergic neurotransmission is increased by systemic administration of d-amphetamine at a dose that is sufficiently high to produce a large increase in locomotor activity. The ability of a compound to antagonize this hyperactivity reflects anti-dopaminergic properties. Furthermore, antagonism of d-amphetamine induced hyperactivity is widely used as a standard assay of antipsychotic activity (see Psychopharmacology 4th Generation of progress Chapter 68, p 793-795).
# (§1) Behavioural activity is measured using eight Digiscan activity monitors (RXYZM (16) TAO, Omnitech Electronics, Columbus, Ohio, USA), connected to an Omnitech Digiscan analyzer and an Apple Macintosh computer equipped with a digital interface board (NB DIO-24, National Instruments, USA). […]
# (§2) Behavioural data from each activity monitor, representing the position (horizontal center of gravity and vertical activity) of the animal at each time, are recorded at a sampling frequency of 25 Hz and collected using a custom written LABView™ application. The data from each recording session are stored and analyzed with respect to distance traveled. […]
# ED50 value for reduction of amphetamine-induced hyper-locomotion is calculated by curve fitting. […]
# MK-801 pre-treated rats = test: Reduction of MK-801-induced hyper-locomotion; format: in vivo; settings: Rattus norvegicus; MK-801 0.7 mg/kg i.p. 90 minutes before test compound; locomotor activity between 45 and 60 minutes after administration; 0-100 μmol/kg s.c.
# Text: Reduction of MK-801-Induced Hyper-Locomotion Another animal model of antipsychotic activity is based on administration of the glutamate antagonist MK-801. Glutamate antagonists (i.e. NMDA antagonists), can induce psychoses in man (see Psychopharmacology, 4th Generation of progress Chapter 101, p. 1205 and 1207) and induce behavioural aberrations in animals. Thus, the ability of a drug to affect schizophrenia and psychotic states can be measured using behavioural models based on experimentally-induced hypoglutamatergic states. In this study the NMDA antagonist MK-801 (0.7 mg/kg i.p.) was used to create a hypoglutamatergic state where the rats display abnormal, hyperactive behaviour.
# as §1, §2
melting point [°C],SMILES,Locomotor activity (drug-naive rats; 3.7 μmol/kg) [counts/60 min],Locomotor activity (drug-naive rats; 11 μmol/kg) [counts/60 min],Locomotor activity (drug-naive rats; 33 μmol/kg) [counts/60 min],ED50 [1] [µmol/kg],further results
204,"CCCCNCCOc1cc(F)cc(S(C)(=O)=O)c1 (as salt: hydrochloric acid salt) [Example 2, N-[2-(3-fluoro-5-methylsulfonyl-phenoxy)ethyl]butan-1-amine]",–,–,–,–,–
200.8 to 201.1,"CCNCCOc1cc(F)cc(S(C)(=O)=O)c1 (as salt: hydrochloric acid salt) [Example 3, N-ethyl-2-(3-fluoro-5-methylsulfonyl-phenoxy)ethanamine]",–,–,–,–,–
128 to 130,"CCCN(C)CCOc1cc(F)cc(S(C)(=O)=O)c1 (as salt: hydrochloric acid salt) [Example 4, N-[2-(3-fluoro-5-methylsulfonyl-phenoxy)ethyl]-N-methyl-propan-1-amine]",–,–,–,–,–
166.5,"CCC(C)NCCOc1cc(F)cc(S(C)(=O)=O)c1 (stereo not drawn) (as salt: hydrochloric acid salt) [Example 5, N-[2-(3-fluoro-5-methylsulfonyl-phenoxy)ethyl]butan-2-amine]",–,–,–,–,–
190.2,"CCC(C)(C)NCCOc1cc(F)cc(S(C)(=O)=O)c1 (as salt: hydrochloric acid salt) [Example 7, N-[2-(3-fluoro-5-methylsulfonyl-phenoxy)ethyl]-2-methyl-butan-2-amine]",–,–,–,–,–
202,"CS(=O)(=O)c1cc(F)cc(OCCNC2CCC2)c1 (as salt: hydrochloric acid salt) [Example 8, N-[2-(3-fluoro-5-methylsulfonyl-phenoxy)ethyl]cyclobutanamine]",–,–,–,–,–
173,"CC(C)NCCOc1cc(F)cc(S(C)(=O)=O)c1 (as salt: hydrochloric acid salt) [Example 9, N-[2-(3-fluoro-5-methylsulfonyl-phenoxy)ethyl]propan-2-amine]",–,–,–,–,–
172.3,"CCN(CC)CCOc1cc(F)cc(S(C)(=O)=O)c1 (as salt: hydrochloric acid salt) [Example 11, N,N-diethyl-2-(3-fluoro-5-methylsulfonyl-phenoxy)ethanamine]",–,–,–,–,–
195 to 197,"CCCNCCOc1cc(Cl)cc(S(C)(=O)=O)c1 (as salt: hydrochloric acid salt) [Example 12, N-[2-(3-chloro-5-methylsulfonyl-phenoxy)ethyl]propan-1-amine]",–,–,–,–,–

# More lines, now with the values behind:
SMILES,melting point [°C],Locomotor activity (drug-naive rats; 3.7 μmol/kg) [counts/60 min],Locomotor activity (drug-naive rats; 11 μmol/kg) [counts/60 min],Locomotor activity (drug-naive rats; 33 μmol/kg) [counts/60 min],ED50 [1] [µmol/kg],further results
"CS(=O)(=O)c1cc(F)cc(OCCNC2CCCC2)c1 (as salt: hydrochloric acid salt) [Example 6, N-[2-(3-fluoro-5-methylsulfonyl-phenoxy)ethyl]cyclopentanamine]",207.5,–,–,–,–,–
"CS(=O)(=O)c1cc(F)cc(OCCN2CCCCC2)c1 (as salt: hydrochloric acid salt) [Example 10, 1-[2-(3-fluoro-5-methylsulfonyl-phenoxy)ethyl]piperidine]",194.6,–,–,–,–,–
"CCCCNCCOc1cc(F)cc(S(C)(=O)=O)c1 [Example 2, N-[2-(3-fluoro-5-methylsulfonyl-phenoxy)ethyl]butan-1-amine]",–,13941,8617,6325,4.2,–
"CCCN(C)CCOc1cc(F)cc(S(C)(=O)=O)c1 [Example 4, N-[2-(3-fluoro-5-methylsulfonyl-phenoxy)ethyl]-N-methyl-propan-1-amine]",–,11435,10025,12829,28.1,ED50 [2]: 69 µmol/kg
"CS(=O)(=O)c1cc(F)cc(OCCNC2CCC2)c1 [Example 8, N-[2-(3-fluoro-5-methylsulfonyl-phenoxy)ethyl]cyclobutanamine]",–,10319,12888,12872,36,ED50 (MK-801 pre-treated rats): 40 µmol/kg
"CS(=O)(=O)c1cc(F)cc(OCCN2CCCCC2)c1 [Example 10, 1-[2-(3-fluoro-5-methylsulfonyl-phenoxy)ethyl]piperidine]",–,11979,9344,8144,14.5,–
"CCCNCCOc1cc(Cl)cc(S(C)(=O)=O)c1 [Example 12, N-[2-(3-chloro-5-methylsulfonyl-phenoxy)ethyl]propan-1-amine]",–,14414,12740,7826,10.5,–

# — patent US9120728B2, “Modulators of cortical dopaminergic- and NMDA-receptor-mediated glutamatergic neurotransmission” (INTEGRATIVE RESEARCH LABORATORIES SWEDEN AB, priority 2011, dated 2015)
